Laboratory results taken from ChEMBL document CHEMBL4043286, “Exploiting the S4-S5 Specificity of Human Neutrophil Proteinase 3 to Improve the Potency of Peptidyl Di(chlorophenyl)-phosphonate Ester Inhibitors: A Kinetic and Molecular Modeling Analysis” (J Med Chem, 2018).
Activity calls are given as the source filed them. The calls are words filed in the database; no cut-off is given here.

Molecular target: T1, Neutrophil elastase (Homo sapiens) (UniProt P08246)
T1 sequence (whole entry): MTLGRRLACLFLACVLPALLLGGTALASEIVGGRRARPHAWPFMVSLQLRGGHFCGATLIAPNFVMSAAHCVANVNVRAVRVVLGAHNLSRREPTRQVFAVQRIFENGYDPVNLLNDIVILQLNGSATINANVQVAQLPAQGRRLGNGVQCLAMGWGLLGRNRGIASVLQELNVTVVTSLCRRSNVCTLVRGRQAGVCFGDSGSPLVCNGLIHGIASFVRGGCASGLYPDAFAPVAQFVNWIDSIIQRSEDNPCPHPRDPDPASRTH
Test: Inhibition of NE in cystic fibrosis patient sputum supernatant at 5 to 10 nM using ABZ-APEEIMRRQ-EDDnp as substrate after 20 mins by spectrophotometric method

`CCCC(NC(=O)[C@H](CC(=O)O)NC(=O)[C@H](Cc1ccc(O)cc1)NC(=O)[C@@H](NC(=O)CCCC[C@@H]1SC[C@@H]2NC(=O)N[C@@H]21)C(C)C)P(=O)(Oc1ccc(Cl)cc1)Oc1ccc(Cl)cc1` (stereo partly specified) was tested, and the inhibition was “inactive”.
